Patent US20260108514A1, “METHOD OF INHIBITING EPITHELIAL-MESENCHYMAL TRANSITION AND CANCER METASTASIS” (Agency for Science, Technology and Research, priority 2022, published 2026)
Counter-ions that a name gives are not always drawn.

Tests used:
[1] = system: HMLE-ZEB1 cells (CDH1prom-luc reporter, Dox-induced ZEB1 driven EMT); experiment: Dual-Glo luciferase CDH1prom-luc reporter screen of LOPAC and bioactive lipid library; assay type: cell-based; conditions: ratio Firefly (CDH1prom-luc) / Renilla luciferase, normalized to DMSO = 1; primary screen
Source text: FIG. 1: Design of a cell-based reporter assay. Doxycycline (Dox)-induced ZEB1 driven EMT (HMLE-ZEB1 cells) was used to conduct high-throughput screen for identifying inhibitors of epithelial-mesenchymal transition.
A) Dual-Glo luciferase assay to test gene promoters that include CD44, CD166, CDH1 and SERPINE1 in Dox-induced HMLE-ZEB1 cells. Data are represented as ratio of mean Firefly luciferase (FF) and Renilla luciferase (Ren) readings; n=3. B) Dual-glo Luciferase assay of HMLE-ZEB1 screened with LOPAC library. Data are represented as ratio of mean Firefly luciferase (FF) and Renilla luciferase (Ren) readings, n=3. Hits are circled in red. C) Average Z-score of Dual-glo Luciferase assay in HMLE-ZEB1 cells screened with LOPAC library; n=4. D) Validation of screening hits by Dual-glo Luciferase assay in HMLE-ZEB1 screened with LOPAC library by primary and secondary screens. E) Hits from secondary screen validated at different concentrations 5, 1.66, 0.55, 0.18 and 0.06 μM. N=3 F) Validation of the screening hits by CDH1 gene expression. n=3. G) Top, Phase-contrast images of morphological changes of HMLE-ZEB1 cells in DMSO and Dox-treated cells in presence or absence of Kenpaullone (0.25 μM) (DMSO, Dox, Ken, and Dox+Ken). Scale represents 100 μm. Second, Immunofluorescence staining of epithelial marker E-Cadherin (ECAD) and mesenchymal marker Vimentin in DMSO, Dox, Ken and Dox+Ken treated cells. Scale represents 50 μm. Bottom, Fluorescence activated sorting analysis (FACS) of CD44 and CD24 staining in Dox induced HMLE-ZEB1 cells in presence or absence of Ken. Numbers within graph represent percentages of gated cells indicating CD44high CD24low (above) and CD44lowCD24high cells (below). H) TdTomato-labelled MCF7-SLUG+SOX9 cells that were injected orthotopically into the mammary fat pads and induced by Doxycycline (+Dox) to express SLUG and SOX9 to promote metastasis in shControl and shGSK3β cells. Top, Representative fluorescence images of whole-mount of lung and second, histology of lung sections. Scale bar represents 100 μm. Third, Tumors were stained for GSK3β and counterstained with hematoxylin. Scale bar represents 100 μm. Fourth, primary tumors were also stained for E-cadherin, Fibronectin and DAPI. Scale bar represents 50 μm. n=3-5 mice for each group. I) Total number of metastasis as counted from whole mount of lung in mice implanted with in shControl and shGSK3β cells. n=3-5 for each group. **P<0.01 and ***P<0.001 as determined by as determined by one-way ANOVA with Dunnet's multiple comparison test. All data are presented as mean+/−SEM. *P<0.05, **P<0.01, ***P<0.001 and ****P<0.0001, not significant (ns) as determined by unpaired two-tailed t-test unless otherwise stated.
FIG. 3: Identification of inhibitors of epithelial-mesenchymal transition from high-throughput screening of bioactive lipid library with the screening platform. A) Dual-glo Luciferase assay of HMLE-ZEB1 screened with bioactive lipid library. Data are represented as ratio of mean Firefly luciferase (FF) and Renilla luciferase (Ren) readings, n=3. Hits are circled in red. B) Average Z-score of Dual-glo Luciferase assay in HMLE-ZEB1 cells screened with bioactive lipid library; n=4. Compounds shown in red indicates top hits. C) Protein expression of EMT markers E-cadherin, Fibronectin Vimentin and Snail in DMSO and 4-OHT induced cells treated with and without Cay10603 (10 nM) in HMLE-TWIST. GAPDH was used as a loading control. D) (First)Morphological evidence and (second) Fluorescence activated sorting analysis (FACS) of CD44 and CD24 staining in DMSO, 4-OHT, CAY10603 and 4-OHT+CAY10603 treated cells. Numbers within graph represent percentages of gated cells indicating CD44highCD24low (above) and CD44lowCD24high cells (below). E) Representative bright-field images and quantification of DMSO,4-OHT, CAY,4-OHT+CAY treated cells as shown by of scratch wound migration assay before and after 6 h of scratch in presence or absence of 4-OHT-induced EMT. […]

[2] = system: MCF7-SLUG+SOX9 cells; experiment: MCF7-SLUG+SOX9 orthotopic xenograft, EMT-dependent lung metastasis; assay type: in vivo, NSG mice
Source text: FIG. 3: Identification of inhibitors of epithelial-mesenchymal transition from high-throughput screening of bioactive lipid library with the screening platform. A) Dual-glo Luciferase assay of HMLE-ZEB1 screened with bioactive lipid library. Data are represented as ratio of mean Firefly luciferase (FF) and Renilla luciferase (Ren) readings, n=3. Hits are circled in red. B) Average Z-score of Dual-glo Luciferase assay in HMLE-ZEB1 cells screened with bioactive lipid library; n=4. Compounds shown in red indicates top hits. C) Protein expression of EMT markers E-cadherin, Fibronectin Vimentin and Snail in DMSO and 4-OHT induced cells treated with and without Cay10603 (10 nM) in HMLE-TWIST. GAPDH was used as a loading control. D) (First)Morphological evidence and (second) Fluorescence activated sorting analysis (FACS) of CD44 and CD24 staining in DMSO, 4-OHT, CAY10603 and 4-OHT+CAY10603 treated cells. Numbers within graph represent percentages of gated cells indicating CD44highCD24low (above) and CD44lowCD24high cells (below). E) Representative bright-field images and quantification of DMSO,4-OHT, CAY,4-OHT+CAY treated cells as shown by of scratch wound migration assay before and after 6 h of scratch in presence or absence of 4-OHT-induced EMT. Images were taken at 4× magnification. Scale bar represents 100 μm. F) (First) Representative images of whole-mount fluorescence lung image and (Second) histology of lung sections. Scale bar represents 100 μm. (Third)Tumors were stained for HDAC6 and counterstained with hematoxylin. Scale bar represents 100 μm. (Fourth) Primary tumors were also stained for E-cadherin, Fibronectin and DAPI. Scale bar represents 50 μm. n=4 mice for each group. G) Total number of metastasis as counted from whole mount of lung with −Dox, +Dox and ACY-1215+Dox treatment. n=3-4 for each group. **P<0.01 as determined by as determined by one-way ANOVA with Dunnet's multiple comparison test. All data are presented as mean+/−SEM. *P<0.05, **P<0.01, ***P<0.001 and ****P<0.0001, not significant (ns) as determined by unpaired two-tailed t-test unless otherwise stated.
FIG. 4. Disruption of microtubule depolymerization through HDAC6 inhibition and GSK3β inhibition restricts EMT. A) Top, Phase-contrast images of morphological changes in DMSO and 4-OHT induced cells treated with Ken, ACY-1215 and combination of both in HMLE-TWIST. Arrows represent cells growing as epithelial clusters. Scale represents 100 μm. Second, Immunofluorescence staining of acetylated α-tubulin in DMSO, Ken+ACY-1215, 4-OHT, ACY-1215+4-OHT, Ken+4-OHT and Ken+ACY-1215+4-OHT treated cells. Scale represents 50 μm. (Third) Fluorescence activated sorting analysis (FACS) of CD44 and CD24 staining in DMSO, Ken+ACY-1215, 4-OHT, ACY-1215+4-OHT, Ken+4-OHT and Ken+ACY-1215+4-OHT treated cells. […] C) Quantification of protein expression for DMSO, Ken+ACY, 4-OHT, ACY+4-OHT, Ken+4-OHT and Ken+ACY+4-OHT treated HMLE-TWIST cells (n=3). […] E) Quantification of percentage area closure in DMSO, Ken+ACY-1215, 4-OHT, ACY-1215+4-OHT, Ken+4-OHT and Ken+ACY-1215+4-OHT treated HMLE-TWIST cells. Graph represents mean+/−SEM of n=4. *P<0.05 and **P<0.01 as determined by unpaired t-test (two-tailed) by Welch's correction. F) Total number of metastasis as counted from whole mount of lung in mice implanted with shControl and shGSK3β cells treated with ACY-1215 in presence or absence of Dox treatment (n=3-4). […]

[3] = system: HMLE-TWIST cells; experiment: TWIST (4-OHT)-induced EMT: markers, morphology, CD44/CD24 FACS, acetylated tubulin; assay type: cell-based; conditions: 4-OHT induced HMLE-TWIST
Source text: (§1) FIG. 3: Identification of inhibitors of epithelial-mesenchymal transition from high-throughput screening of bioactive lipid library with the screening platform. A) Dual-glo Luciferase assay of HMLE-ZEB1 screened with bioactive lipid library. Data are represented as ratio of mean Firefly luciferase (FF) and Renilla luciferase (Ren) readings, n=3. Hits are circled in red. B) Average Z-score of Dual-glo Luciferase assay in HMLE-ZEB1 cells screened with bioactive lipid library; n=4. Compounds shown in red indicates top hits. C) Protein expression of EMT markers E-cadherin, Fibronectin Vimentin and Snail in DMSO and 4-OHT induced cells treated with and without Cay10603 (10 nM) in HMLE-TWIST. […] D) (First)Morphological evidence and (second) Fluorescence activated sorting analysis (FACS) of CD44 and CD24 staining in DMSO, 4-OHT, CAY10603 and 4-OHT+CAY10603 treated cells. […] E) Representative bright-field images and quantification of DMSO,4-OHT, CAY,4-OHT+CAY treated cells as shown by of scratch wound migration assay before and after 6 h of scratch in presence or absence of 4-OHT-induced EMT. […] F) (First) Representative images of whole-mount fluorescence lung image and (Second) histology of lung sections. […] All data are presented as mean+/−SEM. *P<0.05, **P<0.01, ***P<0.001 and ****P<0.0001, not significant (ns) as determined by unpaired two-tailed t-test unless otherwise stated. […]

[4] = system: HMLE-TWIST cells; experiment: Scratch wound migration assay in 4-OHT-induced EMT; assay type: cell-based; conditions: 6 h after scratch
Source text: as §1

[5] = system: HMLE-ZEB1 cells; experiment: Validation of ZEB1-induced EMT inhibition (morphology); assay type: cell-based; conditions: Dox-induced HMLE-ZEB1, Kenpaullone 0.25 μM
Source text: A) Dual-Glo luciferase assay to test gene promoters that include CD44, CD166, CDH1 and SERPINE1 in Dox-induced HMLE-ZEB1 cells. Data are represented as ratio of mean Firefly luciferase (FF) and Renilla luciferase (Ren) readings; n=3. B) Dual-glo Luciferase assay of HMLE-ZEB1 screened with LOPAC library. Data are represented as ratio of mean Firefly luciferase (FF) and Renilla luciferase (Ren) readings, n=3. Hits are circled in red. C) Average Z-score of Dual-glo Luciferase assay in HMLE-ZEB1 cells screened with LOPAC library; n=4. D) Validation of screening hits by Dual-glo Luciferase assay in HMLE-ZEB1 screened with LOPAC library by primary and secondary screens. […] Bottom, Fluorescence activated sorting analysis (FACS) of CD44 and CD24 staining in Dox induced HMLE-ZEB1 cells in presence or absence of Ken. […] Top, Representative fluorescence images of whole-mount of lung and second, histology of lung sections. […] I) Total number of metastasis as counted from whole mount of lung in mice implanted with in shControl and shGSK3β cells. n=3-5 for each group. **P<0.01 and ***P<0.001 as determined by as determined by one-way ANOVA with Dunnet's multiple comparison test. All data are presented as mean+/−SEM. *P<0.05, **P<0.01, ***P<0.001 and ****P<0.0001, not significant (ns) as determined by unpaired two-tailed t-test unless otherwise stated. […]

SMILES	DMSO normalized FF/RL(DMSO = 1) [1]	also measured
COc1cccc(-c2cc(=O)c3ccccc3o2)c1N [PD 98,059]	0.4592	
Cc1ccc(C(=O)Cn2c3c(sc2=N)CCCC3)cc1 [Pifithrin-α]	0.348	
O=c1cc(-c2ccc(O)cc2)oc2cc(O)cc(O)c12 [Apigenin]	0.5787	
COc1ccc(/C=C/C(=O)Nc2ccccc2C(=O)O)cc1OC [Tranilast]	0.4527	
O=C(CCCCCCNC(=O)c1cnc(N(c2ccccc2)c2ccccc2)nc1)NO [ACY-1215, ricolinostat]		lung metastatic lesions ([2]; ACY-1215 50 mg/kg i.p. + Dox vs Dox-fed mice, 10 weeks after doxycycline): significantly reduced lung metastatic lesions; metastatic lesions in the lungs, shControl group ([2]; shControl cells, Dox induction, ACY-1215 treatment): reduced; metastatic lesions in the lungs, shGSK3β group ([2]; shGSK3β cells, ACY-1215 treatment, compared to Dox-fed shControl mice): reduced metastatic lesions most dramatically; tumor burden ([2]; shGSK3β group treated with ACY-1215 vs Dox-fed shControl): non-significant changes in tumor burden; EMT activation in primary tumors (higher HDAC6 and Fibronectin, low E-Cadherin) ([2]; tumors of ACY-1215+Dox mice vs Dox-fed mice): strikingly absent
CC(C)(C)OC(=O)Nc1ccc(-c2cc(C(=O)NCCCCCCC(=O)NO)no2)cc1 [CAY 10603]	0.33	epithelial morphology and CD44 expression (FACS) [3]: retained epithelial morphology along with the block in gain of CD44 expression to some extent; inhibition of TWIST-driven EMT (retention of E-cadherin, no gain of mesenchymal markers) ([3]; Cay10603 10 nM, protein expression): able to inhibit EMT; acquisition of migration ability, wound-healing assay [4]: blocked the acquisition of migration ability
O=c1c2ccccc2nc2n1CCc1c-2[nH]c2ccccc12 [Rutaecarpine]	0.5597	
CCCCCCCCCCCCCCCCCCOC[C@H](COP(=O)([O-])OCC[N+](C)(C)C)OC [2-O-methyl PAF C-18]	0.35	
O=C1Cc2c([nH]c3ccc(Br)cc23)-c2ccccc2N1 [Kenpaullone]	0.8715	inhibition of ZEB1-induced EMT (retention of epithelial morphology) [5]: able to inhibit ZEB1-induced EMT
Oc1cc(O)cc(/C=C/c2ccc(O)c(O)c2)c1 [Piceatannol]	0.6253	
Cc1cc(O)c2c(c1)C(=O)c1cc(O)cc(O)c1C2=O [Emodin]	0.6268	
CCc1ccc(/C=C2/SC(=S)NC2=O)cc1 [10058-F4]	0.5631	
Nc1ccc(-c2ccc3ccccc3n2)cc1 [BF-170 hydrochloride]	0.5174	
